Tests used:
[1] = system: ears of nude mice and Balb/C mice; experiment: In vivo angiogenesis in a mouse-ear model; conditions: for Number of blood vessels: 5 days after inoculation
Description: In Wivo angiogenesis in a mouse-ear model—Ear angiogenesis studies were a modification of an approach described previously (Pettersson, 2000). […] Contralateral ears were injected only with PBS. […] Two days after peptide inoculation, angiogenic effect of peptides could be observed.
Histological sections—Histological sections of the mouse-ears injected with the angiogenic peptides were performed by fixing tissues in 4% buffered formalin. Sections were embedded in paraffin blocks sectioned in 4 μm thick layers and stained with hematoxolin-eosin.

mouse ischemic hind limb [2] = experiment: Mouse ischemic hind limb model, physiological observations (ladder climbing); format: in vivo; design: key: 1 = walk and climb ... 4 = walk with difficulty, cannot climb; conditions: mean score of 10 mice, 10 μg
Description: (§1) Mouse ischemic hind limb model—Ischemia was created in the mouse left hind limb by ligation of the femoral artery. The right hind limb served as control. A day after the operation each of the peptides was injected into one site close to the ligation and one site distal to the ligation. Each mouse was treated with each of the peptides in a total amount of 10 μg.
Physiological observations—Ischemic mice were evaluated for their ability to climb a ladder on day 1, 4, 7, and 10-post operation. The scoring system was as follows: 1—walk and climb; 2—walk and climb with some difficulty, 3—walk and cannot climb the ladder; 4—walk with difficulties and cannot climb the ladder.

mouse ischemic hind limb [3] = experiment: Mouse ischemic hind limb model, blood perfusion (Laser Doppler Imager); format: in vivo; conditions: 14 and 19 days following peptide injection, 10 μg
Description: as §1
Blood perfusion in ischemic mice—The percent of blood perfusion was measured using a Laser Doppler Imager (PeriMed, Sweden) at 14 and 19 days after peptides injections. The average percent perfusion of each limb was computed and expressed as the ischemic (left)/control (right) blood perfusion ratio.

Substance	Number of blood vessels ([1]; 3 ng/ear)	Peptide/PBS = ratio between the No. of blood vessels in the peptide-injected ear and in the PBS-injected ear ([1]; mouse ears, contralateral ear PBS)	Physiological score (ability to climb a ladder) Day 1 (mouse ischemic hind limb [2]; 1 = walk and climb ... 4 = walk with difficulties and cannot climb, day 1 post operation)	Physiological score (ability to climb a ladder) Day 4 (mouse ischemic hind limb [2]; scale 1-4, day 4 post operation)	Physiological score (ability to climb a ladder) Day 7 (mouse ischemic hind limb [2]; scale 1-4, day 7 post operation)	Physiological score (ability to climb a ladder) Day 10 (mouse ischemic hind limb [2]; scale 1-4, day 10 post operation)	The blood perfusion ratio (in percentages) of the ischemic vs. control limbs, Mean (mouse ischemic hind limb [3]) [percentages]	Number of blood vessels ([1]; 10 ng/ear)	Number of blood vessels in the ears of injected mice (photographs) ([1]; VEGF, 100 ng/mouse ear (FIG. 19a))
FGF: positive control, the angiogenic molecule FGF [reference compound]	11	2.08	2.57	2	1	1	93.438		
VEGF [reference compound]								17	increased number of blood vessels
